Test results: patent publication US20230310444A1, “COMPOSITIONS AND METHODS FOR TREATING DISEASES AND DISORDERS” (Curis, Inc., priority 2020, published 2023)
Entries after “also recorded” stand apart in the source; their conditions may differ. Where two headings read alike, the source gives them in different places.

Tests used:
[1] = system: resistant or refractory, advanced NHL; experiment: Phase I dose escalation trial of Compound 1 oral monotherapy in NHL (NCT03328078); type: in vivo, human
Experimental: Seven dosing cohorts included 50 and 100 mg QD, and 50, 100, 200, 300, or 400 mg BID of daily continuous oral monotherapy in 21-Day cycles. Objective included safety and tolerance (primary), pk/pd and early efficacy (secondary), and biomarker correlations (exploratory). 31 patients with resistant or refractory, advanced NHL have been enrolled.

WM = type: in vivo, human
Experimental: The patient remained asymptomatic for over 4 years with a slow increase in m-protein and IgM during that time. By mid-2017 they started to experience increased fatigue. […] There was no evidence of CXCR4 genomic alteration. […] Several options were discussed including clinical trials and standard of care Bruton’s tyrosine kinase inhibitor (BTKi) therapy.
Baseline testing in December 2018 included a bone marrow biopsy showing 5-10% involvement by WM, m-protein of 1.66 g/dL, IgM 2,801 mg/dL, and a computed tomography scan without pathological lymphadenopathy or hepatosplenomegaly. Quantitative immunoglobulins and serum protein electrophoresis were obtained each cycle to determine response to treatment (FIG. 1).
The patient initiated treatment at the first dose level, 50 mg. […] Using a standard 3+3 design the subsequent dose level, 100 mg po BID, was cleared per protocol. Considering evidence of response without noted toxicity, the patient was a candidate to escalate to 100 mg po BID starting with cycle 7 day 1 in April 2019. […] They reported a significant improvement in their quality of life with resolution of fatigue and returned to a rigorous daily exercise program that they had been unable to perform for the last 2 years due to WM-related symptoms. In August 2019 they were noted to have an asymptomatic grade 2 creatine phosphokinase (CPK) elevation, extensive work-up and physical exam was unrevealing. […] During cycles 15 through 20, while on the 200 mg po BID dose, the patient’s IgM plateaued around 1500 mg/dL and m-protein plateaued near 0.9 g/dL. Based on evolving safety data at higher dose levels, the patient was escalated to […] starting with cycle 20 in 1/2020.

[2] = 200 mg po BID, cycles 15 through 20

Anemia, Grade 3 or Higher ([1]; 200 mg BID N=5): 0 n (%) [E]
Thrombocytopenia, All Grades ([1]; 200 mg BID N=5): 0 n (%) [E]
Thrombocytopenia, Grade 3 or Higher ([1]; 200 mg BID N=5): 0 n (%) [E]
Anemia, Grade 3 or Higher ([1]; 300 mg BID N=6): 0 n (%) [E]
Thrombocytopenia, All Grades ([1]; 300 mg BID N=6): 0 n (%) [E]
Thrombocytopenia, Grade 3 or Higher ([1]; 300 mg BID N=6): 0 n (%) [E]
Neutropenia, Grade 3 or Higher ([1]; 400 mg BID N=8): 0 n (%) [E]
pharmacokinetics, exposure versus dose ([1]; in vivo): dose-proportional increases in exposure
pharmacokinetic properties ([1]; summary): desirable pharmacokinetic properties
Structure (SMILES): Cc1cc(-c2nc(C(=O)Nc3cc4oc(N5CCOCC5)nc4nc3N3CC[C@@H](O)C3)co2)ccn1 [Compound 1]
safety and tolerance overall ([1]; 50 mg QD to 400 mg BID): well tolerated; also recorded: good safety and tolerance
Tumor Reduction ([1]; DLBCL (transformed MZL), initial 50 mg qd, final 50 mg qd): 24%
Tumor Reduction ([1]; DLBCL-ABC, initial 400 mg bid, final 400 mg bid): 42%
Tumor Reduction ([1]; DLBCL, initial 50 mg bid, final 50 mg bid): 11%
Tumor Reduction ([1]; FL, initial 100 mg qd, final 50 mg qd): 49%
Tumor Reduction ([1]; LPL, initial 200 mg bid, final 300 mg bid *): 20%
Tumor Reduction ([1]; MALT/MZL, initial 400 mg bid, final 300 mg bid*): 25%
Tumor Reduction ([1]; MZL, initial 400 mg bid, final 400 mg bid): 5%
Tumor Reduction ([1]; WM, initial 50 mg bid, final 300 mg bid *): 66%
pharmacodynamic changes, cytokines ([1]; in vivo): cytokine reductions
clinical activity ([1]; summary): preliminary clinical activity
disease control ([1]; treatment duration between < 1 and 18+ months): sustained disease control
IgM (WM; 50 mg, cycle 6 day 1): 2639 mg/dL
IgM (WM; 50 mg, during first 2 cycles, baseline 2801 mg/dL): 2866 mg/dL
m-protein (WM; 50 mg, first six 21-day cycles, baseline 1.66 g/dL): 1.55 g/dL
response (WM; 100 mg po BID, cycles 7 and 8): stable disease (SD)
IgM plateau (WM; [2]): around 1500 mg/dL
m-protein plateau (WM; [2]): ~0.9 g/dL
IgM (WM; 300 g po BID from cycle 20, C22 day 1): 1241 mg/dL
m-protein (WM; after 100 mg po BID cycles 7-8, prior to 200 mg BID escalation): 1.37 g/dL
m-protein (WM; from cycle 20, C22 day 1): 0.68 g/dL
